Reference: PubChem BioAssay AID250 (DTP/NCI, 2004)
“And” between values parts separate entries of the source, which are not always exact repeats. Identical values can stand only once. Inconclusive results and toxic doses are left out.

Test system: BDF1 mice, L1210 leukemia sc, survival T/C
Assay: NCI In Vivo Anticancer Drug Screen. Data for tumor model L1210 Leukemia (subcutaneous) in B6D2F1 (BDF1) mice
Conditions: endpoint: median survival time, higher = longer survival
How it was run: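 Transplantable tumor-bearing mice; survival or tumor size recorded; result = T/C, treated vs vehicle control.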

[1] = dose: 39.0 mg/kg/injection, schedule: Q01DX Z (sc), vehicle: saline
[2] = dose: 65.0 mg/kg/injection, schedule: Q01DX Z (sc), vehicle: saline
[3] = dose: 108.0 mg/kg/injection, schedule: Q01DX Z (sc), vehicle: saline
[4] = dose: 180.0 mg/kg/injection, schedule: Q01DX Z (sc), vehicle: saline
[5] = dose: 300.0 mg/kg/injection, schedule: Q01DX Z (sc), vehicle: saline
[6] = dose: 500.0 mg/kg/injection, schedule: Q01DX Z (sc), vehicle: saline
[7] = dose: 833.0 mg/kg/injection, schedule: Q01DX Z (sc), vehicle: saline
[8] = dose: 39.0 mg/kg/injection, schedule: Q01DX Z (sc), vehicle: methylcellulose (MC)
[9] = dose: 65.0 mg/kg/injection, schedule: Q01DX Z (sc), vehicle: methylcellulose (MC)
[10] = dose: 108.0 mg/kg/injection, schedule: Q01DX Z (sc), vehicle: methylcellulose (MC)

SMILES: CCOC(C)C(=O)C=O (stereo not given)
- T/C (dose: 23.0 mg/kg/injection, schedule: Q01DX Z (sc), vehicle: water): 100 % of control
- T/C (dose: 39.0 mg/kg/injection, schedule: Q01DX Z (sc), vehicle: water): 100 % of control
- T/C (dose: 65.0 mg/kg/injection, schedule: Q01DX Z (sc), vehicle: water): 100 % of control
- T/C (dose: 108.0 mg/kg/injection, schedule: Q01DX Z (sc), vehicle: water): 100 % of control
- T/C (dose: 180.0 mg/kg/injection, schedule: Q01DX Z (sc), vehicle: water): 100 % of control
- T/C (dose: 300.0 mg/kg/injection, schedule: Q01DX Z (sc), vehicle: water): 100 % of control
- T/C (dose: 500.0 mg/kg/injection, schedule: Q01DX Z (sc), vehicle: water): 105 % of control

SMILES: CN(C)c1nc(N(C)C)nc(N(C)C)n1
- T/C [1]: 100 % of control
- T/C [2]: 100 % of control
- T/C [3]: 100 % of control
- T/C [4]: 100 % of control
- T/C [5]: 95 % of control and 105 % of control
- T/C [6]: 95 % of control
- T/C [7]: 110 % of control
- T/C (dose: 1388.0 mg/kg/injection, schedule: Q01DX Z (sc), vehicle: saline): 100 % of control

SMILES: C[C@H](N)C(=O)N[C@@H]1[C@H]2C(=C(O)C[C@@H](O)[C@@H]2O)C(=O)O[C@@H]1C
- T/C [1]: 109 % of control
- T/C [2]: 109 % of control
- T/C [3]: 100 % of control
- T/C [4]: 100 % of control and 104 % of control
- T/C (dose: 180.0 mg/kg/injection, schedule: Q#A X Z (sc), vehicle: saline): 103 % of control
- T/C [5]: 100 % of control and 109 % of control
- T/C (dose: 300.0 mg/kg/injection, schedule: Q#A X Z (sc), vehicle: saline): 107 % of control
- T/C (dose: 389.0 mg/kg/injection, schedule: Q01DX Z (sc), vehicle: saline): 112 % of control
- T/C [6]: 107 % of control and 118 % of control
- T/C (dose: 500.0 mg/kg/injection, schedule: Q#A X Z (sc), vehicle: saline): 103 % of control
- T/C [7]: 163 % of control
- T/C (dose: 1388.0 mg/kg/injection, schedule: Q#A X Z (sc), vehicle: saline): 115 % of control
- T/C (dose: 1800.0 mg/kg/injection, schedule: Q01DX Z (sc), vehicle: saline): 150 % of control

SMILES: C=CCCCCCCCCC(C)(N)C(=O)O (stereo not given)
- T/C (dose: 14.0 mg/kg/injection, schedule: Q01DX Z (sc), vehicle: methylcellulose (MC)): 100 % of control
- T/C (dose: 23.0 mg/kg/injection, schedule: Q01DX Z (sc), vehicle: methylcellulose (MC)): 90 % of control
- T/C [8]: 90 % of control
- T/C [9]: 95 % of control
- T/C [10]: 95 % of control
- T/C (dose: 180.0 mg/kg/injection, schedule: Q01DX Z (sc), vehicle: methylcellulose (MC)): 100 % of control
- T/C (dose: 300.0 mg/kg/injection, schedule: Q01DX Z (sc), vehicle: methylcellulose (MC)): 95 % of control

SMILES: CC[C@H](c1ccc(O)cc1)[C@@H](CC)c1ccc(O)cc1
- T/C [8]: 100 % of control
- T/C [9]: 100 % of control
- T/C [10]: 100 % of control

SMILES: Nc1nc(N)c2cc(CNc3ccc(C(=O)NC(CC(=O)O)C(=O)O)cc3)ccc2n1 (stereo not given)
- T/C (dose: 0.78 mg/kg/injection, schedule: Q01DX Z (sc), vehicle: saline): 216 % of control
- T/C (dose: 1.56 mg/kg/injection, schedule: Q01DX Z (sc), vehicle: saline): 200 % of control
- T/C (dose: 3.12 mg/kg/injection, schedule: Q01DX Z (sc), vehicle: saline): 150 % of control
- T/C (dose: 6.25 mg/kg/injection, schedule: Q01DX Z (sc), vehicle: saline): 122 % of control
- T/C (dose: 6.3 mg/kg/injection, schedule: Q01DX001 (sc), vehicle: saline): 122 % of control
- T/C (dose: 12.5 mg/kg/injection, schedule: Q01DX001 (sc), vehicle: saline): 116 % of control
- T/C (dose: 12.5 mg/kg/injection, schedule: Q01DX Z (sc), vehicle: saline): 111 % of control
- T/C (dose: 25.0 mg/kg/injection, schedule: Q01DX Z (sc), vehicle: saline): 100 % of control
- T/C (dose: 50.0 mg/kg/injection, schedule: Q01DX001 (sc), vehicle: saline): 166 % of control

SMILES: O=C(O)CS
- T/C [8]: 100 % of control
- T/C [9]: 100 % of control
- T/C [10]: 100 % of control
